The target in one data set is CalAHAS. The note with it: cited from earlier work.
The target of a further data set is T1, AtAHAS (Arabidopsis thaliana, UniProt P17597).
T1 sequence (P17597 56-670): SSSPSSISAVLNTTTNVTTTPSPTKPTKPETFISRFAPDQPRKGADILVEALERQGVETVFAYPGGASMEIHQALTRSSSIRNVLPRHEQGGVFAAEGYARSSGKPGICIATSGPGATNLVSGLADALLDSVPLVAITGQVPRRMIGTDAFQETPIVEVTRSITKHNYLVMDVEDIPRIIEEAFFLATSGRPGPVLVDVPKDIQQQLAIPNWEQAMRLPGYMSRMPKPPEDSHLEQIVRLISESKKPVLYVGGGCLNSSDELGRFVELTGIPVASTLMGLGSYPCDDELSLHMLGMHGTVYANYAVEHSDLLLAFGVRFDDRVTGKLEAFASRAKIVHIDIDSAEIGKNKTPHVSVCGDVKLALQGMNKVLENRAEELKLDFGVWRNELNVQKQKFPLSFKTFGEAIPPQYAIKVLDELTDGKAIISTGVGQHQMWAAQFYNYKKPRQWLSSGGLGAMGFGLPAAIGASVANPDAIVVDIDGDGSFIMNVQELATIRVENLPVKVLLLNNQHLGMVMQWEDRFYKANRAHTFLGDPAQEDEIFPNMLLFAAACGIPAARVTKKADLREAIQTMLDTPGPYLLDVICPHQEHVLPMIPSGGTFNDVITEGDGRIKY
Nature of the data set: AHAS enzyme inhibition assay. The class given is biochemical.

For another data set, the target named is SceAHAS (Saccharomyces cerevisiae, UniProt P07342). Kind of data set: biochemical.
Chain of SceAHAS (P07342 91-687): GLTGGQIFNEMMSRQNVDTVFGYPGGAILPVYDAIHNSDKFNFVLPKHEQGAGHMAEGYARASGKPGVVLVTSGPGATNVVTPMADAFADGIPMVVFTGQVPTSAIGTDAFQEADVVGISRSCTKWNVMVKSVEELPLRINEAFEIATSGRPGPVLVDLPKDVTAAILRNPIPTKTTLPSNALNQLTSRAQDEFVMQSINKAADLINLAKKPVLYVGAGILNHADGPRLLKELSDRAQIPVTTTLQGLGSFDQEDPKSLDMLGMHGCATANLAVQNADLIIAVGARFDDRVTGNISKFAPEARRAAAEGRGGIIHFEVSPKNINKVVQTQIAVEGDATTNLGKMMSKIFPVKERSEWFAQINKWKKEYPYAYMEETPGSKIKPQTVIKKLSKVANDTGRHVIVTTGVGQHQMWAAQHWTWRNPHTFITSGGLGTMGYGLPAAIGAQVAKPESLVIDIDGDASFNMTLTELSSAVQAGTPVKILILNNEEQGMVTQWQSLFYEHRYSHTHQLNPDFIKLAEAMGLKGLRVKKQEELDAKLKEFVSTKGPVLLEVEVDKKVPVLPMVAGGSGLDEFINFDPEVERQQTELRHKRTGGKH
The subject of a further data set is F. oxysporum. Kind of data set: Antifungal resazurin assay. The class given is cell-based. A general note: Resazurin is reduced to fluorescent resorufin, in cell work by metabolically active cells.
In another data set the test system is Sclerotinia sclerotiorum. To be noted: plant pathogenic fungus; cited from earlier work.
A further data set concerns the target T2, ThAHAS K247A (Trichoderma afroharzianum, UniProt A0ABF7PL51, K247A).
T2 sequence (A0ABF7PL51 53-689 K247A): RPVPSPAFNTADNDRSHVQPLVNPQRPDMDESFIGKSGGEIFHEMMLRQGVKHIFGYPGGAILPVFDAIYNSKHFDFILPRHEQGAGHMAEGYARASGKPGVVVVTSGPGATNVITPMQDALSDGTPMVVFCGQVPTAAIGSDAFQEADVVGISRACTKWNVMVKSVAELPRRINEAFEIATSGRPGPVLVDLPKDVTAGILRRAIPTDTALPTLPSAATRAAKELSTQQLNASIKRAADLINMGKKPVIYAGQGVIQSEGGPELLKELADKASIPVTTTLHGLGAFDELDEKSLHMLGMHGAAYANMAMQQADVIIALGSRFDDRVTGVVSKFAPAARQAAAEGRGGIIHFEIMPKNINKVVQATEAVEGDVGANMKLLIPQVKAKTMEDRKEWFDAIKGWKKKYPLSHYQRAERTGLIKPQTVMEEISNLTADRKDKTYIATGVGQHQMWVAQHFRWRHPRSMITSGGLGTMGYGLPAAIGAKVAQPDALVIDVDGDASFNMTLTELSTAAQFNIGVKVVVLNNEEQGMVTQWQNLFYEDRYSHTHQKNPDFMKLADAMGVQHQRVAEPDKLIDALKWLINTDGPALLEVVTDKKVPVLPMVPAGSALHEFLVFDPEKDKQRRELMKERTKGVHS
Nature of the data set: AHAS enzyme inhibition assay, K247A mutant. The data set is classed as biochemical, Trichoderma afroharzianum t-22.

A further data set concerns canola seedlings. The note with it: higher (10–100 μg) doses, petri dishes; cited from earlier work.
The next data set concerns the target T3, ScsAHAS (Sclerotinia sclerotiorum, UniProt A7EMK2).
T3 sequence (A7EMK2 30-699): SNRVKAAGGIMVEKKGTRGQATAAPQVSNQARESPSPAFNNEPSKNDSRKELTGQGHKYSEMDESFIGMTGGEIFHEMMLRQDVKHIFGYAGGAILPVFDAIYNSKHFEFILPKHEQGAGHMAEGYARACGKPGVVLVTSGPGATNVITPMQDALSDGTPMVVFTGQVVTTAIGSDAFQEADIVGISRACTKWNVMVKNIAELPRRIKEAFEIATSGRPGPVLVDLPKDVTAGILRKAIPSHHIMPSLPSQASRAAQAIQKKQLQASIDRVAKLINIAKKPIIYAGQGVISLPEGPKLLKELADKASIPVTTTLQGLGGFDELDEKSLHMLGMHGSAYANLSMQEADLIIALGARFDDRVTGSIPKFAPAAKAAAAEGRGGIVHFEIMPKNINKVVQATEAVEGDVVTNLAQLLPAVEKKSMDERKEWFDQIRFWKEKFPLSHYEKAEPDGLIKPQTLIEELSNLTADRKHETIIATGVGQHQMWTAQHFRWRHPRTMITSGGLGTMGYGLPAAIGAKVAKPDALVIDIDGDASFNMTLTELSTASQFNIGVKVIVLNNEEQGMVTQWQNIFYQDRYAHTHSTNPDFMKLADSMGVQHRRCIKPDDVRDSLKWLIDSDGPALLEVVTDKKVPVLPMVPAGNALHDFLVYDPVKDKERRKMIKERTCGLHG
Kind of data set: AHAS enzyme inhibition assay. The data set is classed as biochemical, S. sclerotiorum 1980 UF-70.

A further data set addresses (UniProt Z9DR95LUB2). Kind of data set: AHAS enzyme inhibition assay. The data set is classed as biochemical, Trichoderma afroharzianum t-22.
For a further data set, the system named is ThAHAS. Nature of the data set: AHAS enzyme inhibition assay. The data set is classed as biochemical, Trichoderma afroharzianum t-22.
Data set [1] deals with S. cerevisiae Δilv2 strain with AHAS complementation. The data set is classed as cell-based. To be noted: under assay concentrations, even in Ile and Val supplemented growth media.
The subject of the next data set is soybeans. To be noted: cited from earlier work.
A further data set addresses FuoAHAS (Fusarium oxysporum, UniProt X0CFW6). Nature of the data set: AHAS enzyme inhibition assay. The class given is biochemical, F. oxysporum NRRL 32931.
The target of the next data set is ThAHAS^M. Kind of data set: AHAS enzyme inhibition assay. The class given is biochemical, Trichoderma afroharzianum t-22. The note with it: for IC50: [E]=0.5 μM.
Another data set concerns Rhizoctonia solani. To be noted: plant pathogenic fungus; cited from earlier work.
The test system of data set [2] is S. cerevisiae Δilv2 strain expressing ThAHAS^M. Kind of data set: Yeast growth inhibition in Ile and Val dropout medium. The class given is cell-based. The note with it: Δilv2 complemented with ThAHAS^M.
Data set [3] has as its system S. cerevisiae BJ5464-NpgA. Described as above. The data set is classed as cell-based. The note with it: parent yeast strain.
Data set [4] concerns S. cerevisiae Δilv2 strain expressing AtAHAS. The data set is described as above. The data set is classed as cell-based. To be noted: Δilv2 complemented with AtAHAS.
Data set [5] relates to S. cerevisiae Δilv2 strain expressing ThAHAS. Described as above. The class given is cell-based. The note with it: Δilv2 complemented with ThAHAS.

The text below walks through data of article PMC8674378 (Journal of the American Chemical Society, 2021).

Structures are written as SMILES. In brackets after ≈: the same amount, converted by molar mass.

For orientation: Ki means the equilibrium dissociation constant of an inhibitor or competing ligand from its target. On to `COc1cc(OC)n2nc(S(=O)(=O)Nc3c(Cl)ccc(C)c3Cl)nc2n1` [MT, metosulam], for which the Ki entry at CalAHAS is given as “low nanomolar”.

As usually defined, the IC50 is the concentration that gives 50% inhibition. For the compound `CCCC=CC=CC(=O)C1=C(O)C(CC(O)(C(=O)O)C(C)C)N(C)C1=O` (stereo not shown) [HA, harzianic acid], the “inhibition of plant AtAHAS” value on AtAHAS was “No inhibition”. The Ki was around 83 µM at SceAHAS; 11 µM at ScsAHAS; 6.65 µM at (UniProt Z9DR95LUB2); 14 µM on FuoAHAS; 3.39 µM on ThAHAS^M. In addition, the IC50 was around 26 µg/mL (≈ 71.1 µM) in the data set on F. oxysporum (Fusarium oxysporum, 48 h, read-out: IC50 of growth inhibition); 162 µM on ThAHAS K247A; 20 µM on ThAHAS^M. Further, the inhibition of growth entry in the data set with F. oxysporum (grown in the presence of BCAAs (Leu, Ile and Val), RPMI 1640, 48h) is recorded as “inhibition of growth was only observed at very high concentrations”. Moreover, the antifungal activity entry in the data set with Sclerotinia sclerotiorum and with Rhizoctonia solani was “antifungal activity” in each case. At ThAHAS K247A (K247A versus ThAHAS), the “fold increase in IC50 by K247A mutation” value was 4 fold. The “effect on growth of canola seedlings” value with canola seedlings is on record as “growth inhibition”. Moreover, the “preferential binding, fold lower in Ki” value with ThAHAS (filamentous fungal AHAS over yeast SceAHAS) was above 10 fold. Moreover, the toxicity towards yeast entry in data set [1] is “general toxicity”. Also, the “increase of production of soybean pods and seeds” value in the data set with soybeans (field conditions) is listed as 5–10%. Moreover, the “improvement of stem lengths” value in the data set with soybeans (soybeans, greenhouse conditions) is reported as above 40%.

As to `CCCC=CC=CC(=O)C1=C(O)C(CC(O)(C(=O)O)C(C)C)NC1=O` (stereo not shown) [compound 5, demethylharzianic acid], the IC50 at ThAHAS^M came to 37 µM.

Turning to `COC(=O)c1ccccc1S(=O)(=O)NC(=O)Nc1nc(C)cc(C)n1` [SM, sulfometuron methyl, reference compound], the growth inhibition entry is listed as “minimal sensitivity” in data set [2], “potently inhibited” in [3], “potently inhibited” in [4] and “potently inhibited” in data set [5]. Also, the “sensitivity of ScsAHAS” value on ScsAHAS (in vitro assay conditions) is “completely insensitive”. Besides, the IC50 at ThAHAS is around 0.35 µM. The “sensitivity of FuoAHAS” value on FuoAHAS (in vitro assay conditions) is “completely insensitive”. Besides, in the data set on ThAHAS^M (even at elevated concentration (100 μM)), the “inhibition of ThAHAS^M” value is reported as “no inhibition”.
